Measured values as given in publication PMC3138877 (Cancer research, 2011).
Read-outs that look alike come from different tables or passages of the source.

Key:
[1] = Pharmacokinetic study, plasma levels in mice; assay type: in vivo; conditions: for plasma level at 2 hours after dosing: mice, oral; for bioavailability in vivo / half-life in vivo: pharmacokinetic study
[2] = system: HepG2 hepatocellular carcinoma cells; assay: Cell Titer Blue viability, HepG2; assay type: cell-based, human; conditions: read-out: IC50 HepG2
[3] = system: H2030 lung cancer cells (KRAS G12C); assay: Cell Titer Blue viability, H2030; assay type: cell-based, human; conditions: read-out: IC50 H2030
[4] = system: HCC78 cells (SLC34A2-ROS fusion); assay: Cell Titer Blue viability, HCC78; assay type: cell-based, human
[5] = system: PC-9 lung cancer cells (EGFR exon 19 del); assay: Cell Titer Blue viability, PC-9; assay type: cell-based, human; conditions: read-out: IC50 PC-9
[6] = system: H3122 lung cancer cells harboring EML4-ALK E13;A20 (variant 1); assay: Cell Titer Blue viability, H3122; assay type: cell-based, human; conditions: for fold more potent than PF-1066 in H3122: growth inhibition
[7] = system: H2228 lung cancer cells (EML4-ALK E6a/b;A20); assay: Cell Titer Blue viability, H2228; assay type: cell-based, human; conditions: for IC50: read-out: IC50 H2228, 72h, Cell titer blue
[8] = system: HCC78 cells (SLC34A2-ROS fusion); conditions: cited from earlier work
[9] = system: EML4-ALK E13;A20, EML4-ALK E20;A20, EML4-ALK E6b;A20 and KIF5B-ALK; assay: Surrogate kinase assays on four ALK variants in 293 cells; assay type: cell-based
[10] = system: SY5Y neuroblastoma cells (ALK F1174L); assay: Cell Titer Blue viability, SY5Y; assay type: cell-based, human; conditions: read-out: IC50 SY5Y, 72h
[11] = 10-day repeated oral toxicity study in SD rats; conditions: for no significant toxicity (NST) level: 10 days repeated oral administration
ROS1 = ROS1 (Homo sapiens, UniProt P08922); assay: Ambit screen, ROS1; conditions: read-out: IC50 ROS1 in vitro (Ambit screen); racemic forms
ALK = ALK (Homo sapiens, UniProt Q9UM73); assay: Ambit KINOMEscan dose-response profiling, ALK; conditions: for IC50: read-out: IC50 ALK (Ambit assays), Biochemical potency, Kinomescan
Chain of ALK (Q9UM73 19-1620): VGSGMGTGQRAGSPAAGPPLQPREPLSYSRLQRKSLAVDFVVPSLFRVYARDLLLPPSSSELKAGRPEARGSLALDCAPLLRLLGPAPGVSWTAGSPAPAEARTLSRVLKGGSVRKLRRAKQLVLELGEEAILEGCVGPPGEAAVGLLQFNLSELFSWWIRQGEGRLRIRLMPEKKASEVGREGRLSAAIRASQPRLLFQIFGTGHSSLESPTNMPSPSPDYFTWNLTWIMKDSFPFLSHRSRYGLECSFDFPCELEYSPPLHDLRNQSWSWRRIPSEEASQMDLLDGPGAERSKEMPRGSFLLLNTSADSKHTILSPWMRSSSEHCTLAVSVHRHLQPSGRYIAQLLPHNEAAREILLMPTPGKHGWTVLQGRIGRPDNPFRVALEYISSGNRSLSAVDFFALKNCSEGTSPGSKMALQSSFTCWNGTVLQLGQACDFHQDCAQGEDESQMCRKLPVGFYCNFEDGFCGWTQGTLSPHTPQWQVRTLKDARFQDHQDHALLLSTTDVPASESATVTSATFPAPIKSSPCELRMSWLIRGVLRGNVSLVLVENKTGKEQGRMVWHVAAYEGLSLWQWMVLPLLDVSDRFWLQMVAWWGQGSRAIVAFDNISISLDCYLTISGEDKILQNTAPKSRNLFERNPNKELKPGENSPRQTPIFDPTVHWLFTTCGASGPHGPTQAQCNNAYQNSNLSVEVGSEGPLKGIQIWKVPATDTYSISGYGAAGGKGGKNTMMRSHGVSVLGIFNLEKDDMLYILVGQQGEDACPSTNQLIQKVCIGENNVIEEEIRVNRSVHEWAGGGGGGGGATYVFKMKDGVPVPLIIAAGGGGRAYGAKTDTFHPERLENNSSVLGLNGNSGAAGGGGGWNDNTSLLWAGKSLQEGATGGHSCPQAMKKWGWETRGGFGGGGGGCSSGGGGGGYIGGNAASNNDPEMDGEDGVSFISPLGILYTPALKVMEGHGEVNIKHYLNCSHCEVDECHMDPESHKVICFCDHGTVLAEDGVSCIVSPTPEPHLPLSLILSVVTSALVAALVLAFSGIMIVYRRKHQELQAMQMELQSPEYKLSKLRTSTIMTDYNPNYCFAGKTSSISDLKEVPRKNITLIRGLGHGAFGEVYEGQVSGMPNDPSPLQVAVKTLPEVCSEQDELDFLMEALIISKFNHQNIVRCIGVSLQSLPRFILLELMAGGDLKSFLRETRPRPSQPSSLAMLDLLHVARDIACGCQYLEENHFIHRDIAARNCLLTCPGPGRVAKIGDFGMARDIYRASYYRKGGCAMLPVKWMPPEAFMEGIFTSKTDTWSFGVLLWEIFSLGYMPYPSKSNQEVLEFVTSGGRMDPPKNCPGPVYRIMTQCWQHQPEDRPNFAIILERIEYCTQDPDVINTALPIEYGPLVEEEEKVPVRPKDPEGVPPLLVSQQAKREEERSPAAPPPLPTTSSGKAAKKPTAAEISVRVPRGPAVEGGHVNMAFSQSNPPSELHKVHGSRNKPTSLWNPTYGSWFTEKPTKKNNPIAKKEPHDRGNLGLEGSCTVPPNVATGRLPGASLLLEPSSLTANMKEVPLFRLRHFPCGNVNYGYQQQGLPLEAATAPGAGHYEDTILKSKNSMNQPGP

H3122 cells = assay: Annexin V / propidium iodide apoptosis assay; assay type: cell-based, human; conditions: 72h, increasing concentrations
[12] = system: SUDHL-1 lymphoma cells (NPM-ALK); assay: Cell Titer Blue viability, SUDHL-1; assay type: cell-based, human; conditions: read-out: IC50 SUDHL-1, 72h
EML4-ALK E13;A20 = EML4-ALK E13;A20 (Homo sapiens, UniProt Q9HC35+Q9UM73); assay: Surrogate kinase assay; assay type: cell-based; conditions: 2 hours treatment, immunoblot, compared with PF-1066
H3122 xenografts = assay: H3122 xenograft study in nude mice; assay type: in vivo; conditions: for growth of H3122 xenograft tumors vs vehicle: nude mice, oral gavage; for mouse weight: xenograft experiment
[13] = system: MKN-45 gastric carcinoma cells (MET dependent); assay: Cell Titer Blue viability, MKN-45; assay type: cell-based, human; conditions: read-out: IC50 MKN-45, 72h
MET = MET (Homo sapiens, UniProt P08581); assay: Ambit KINOMEscan dose-response profiling, MET; conditions: read-out: IC50 MET (Ambit assays), Biochemical potency
Chain of MET (P08581 25-1390): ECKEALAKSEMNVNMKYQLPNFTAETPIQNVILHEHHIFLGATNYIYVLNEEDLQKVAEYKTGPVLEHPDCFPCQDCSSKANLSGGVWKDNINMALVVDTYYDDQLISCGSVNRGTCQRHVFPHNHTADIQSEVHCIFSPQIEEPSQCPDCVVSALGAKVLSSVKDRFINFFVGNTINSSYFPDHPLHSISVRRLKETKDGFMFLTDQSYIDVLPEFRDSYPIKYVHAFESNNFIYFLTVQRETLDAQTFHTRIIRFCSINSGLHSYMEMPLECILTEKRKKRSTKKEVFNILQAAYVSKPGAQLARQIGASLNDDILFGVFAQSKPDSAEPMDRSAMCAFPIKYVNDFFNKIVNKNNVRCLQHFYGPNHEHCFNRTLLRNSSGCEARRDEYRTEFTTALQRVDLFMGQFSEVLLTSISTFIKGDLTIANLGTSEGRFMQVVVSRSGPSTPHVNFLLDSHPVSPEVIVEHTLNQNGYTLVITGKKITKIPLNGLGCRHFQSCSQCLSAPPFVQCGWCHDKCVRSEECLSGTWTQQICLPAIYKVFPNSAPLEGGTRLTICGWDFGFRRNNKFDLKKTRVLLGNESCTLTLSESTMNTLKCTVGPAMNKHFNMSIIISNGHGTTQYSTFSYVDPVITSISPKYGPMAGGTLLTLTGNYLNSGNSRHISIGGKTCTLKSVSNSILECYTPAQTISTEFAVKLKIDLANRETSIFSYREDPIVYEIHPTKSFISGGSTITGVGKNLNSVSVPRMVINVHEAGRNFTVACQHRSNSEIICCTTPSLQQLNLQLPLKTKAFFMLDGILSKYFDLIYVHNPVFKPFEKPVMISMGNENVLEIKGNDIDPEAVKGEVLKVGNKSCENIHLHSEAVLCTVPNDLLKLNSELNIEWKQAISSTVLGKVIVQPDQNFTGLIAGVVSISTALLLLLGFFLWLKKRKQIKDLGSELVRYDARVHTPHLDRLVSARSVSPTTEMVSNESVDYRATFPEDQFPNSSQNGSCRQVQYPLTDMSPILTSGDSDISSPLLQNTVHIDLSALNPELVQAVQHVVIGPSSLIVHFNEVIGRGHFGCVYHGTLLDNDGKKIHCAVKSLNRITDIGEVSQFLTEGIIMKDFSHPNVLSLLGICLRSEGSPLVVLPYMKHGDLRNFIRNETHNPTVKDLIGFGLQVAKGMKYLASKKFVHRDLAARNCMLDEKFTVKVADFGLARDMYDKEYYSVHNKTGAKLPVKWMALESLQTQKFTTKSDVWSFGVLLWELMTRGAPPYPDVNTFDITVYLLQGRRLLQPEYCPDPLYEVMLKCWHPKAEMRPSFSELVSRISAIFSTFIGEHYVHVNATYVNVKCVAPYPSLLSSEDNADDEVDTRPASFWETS

[14] = Blood-brain-barrier penetration in C57BL/6J mice; assay type: in vivo; conditions: for brain penetration (brain tissue concentration as % of plasma level): C57BL/6J mice, 2 hours after dosing
[15] = system: Ba/F3 cells expressing EML4-ALK E13;A20 L1196M; assay: Cell Titer Blue viability, Ba/F3 EML4-ALK L1196M; assay type: cell-based; conditions: 72h
[16] = system: Ba/F3 cells expressing EML4-ALK E13;A20 C1156Y; assay: Cell Titer Blue viability, Ba/F3 EML4-ALK C1156Y; assay type: cell-based; conditions: 72h
[17] = system: EML4-ALK E13;A20 in H3122 lung cancer cells; assay: Endogenous ALK phosphorylation immunoblot in H3122; assay type: cell-based, human; conditions: 1 hour treatment, compared to PF-1066
EML4-ALK E13;A20 C1156Y = EML4-ALK E13;A20 C1156Y (Homo sapiens, UniProt Q9HC35+Q9UM73, C1156Y); assay: Surrogate kinase assay, C1156Y mutant in 293 cells; assay type: cell-based; conditions: 2 hours, at higher concentrations than for wild-type fusion
[18] = system: Ba/F3 cells expressing EML4-ALK E13;A20 WT; assay: Cell Titer Blue viability, Ba/F3 EML4-ALK WT; assay type: cell-based
EML4-ALK E13;A20 L1196M = EML4-ALK E13;A20 L1196M (Homo sapiens, UniProt Q9HC35+Q9UM73, L1196M); assay: Surrogate kinase assay, L1196M mutant in 293 cells; assay type: cell-based; conditions: 2 hours, at higher concentrations than for wild-type fusion
[19] = read-out: IC50 HCC78, 72h, Cell titer blue
[20] = read-out: IC50 H3122, 72h, Cell titer blue
[21] = 72 hours, Chou-Talalay and Mix-Low methods

SMILES | IC50 [4, 19] [nM] | IC50 [10] [nM] | bioavailability in vivo [1] | half-life in vivo [1] | no significant toxicity (NST) level [11] [mg/kg] | IC50 ([2]; 72h, Cell titer blue) [nM] | fold more potent than PF-1066 in H3122 [6] [fold] | IC50 [6, 20] [nM] | fold more potent against ALK compared to PF-1066 (ALK) | IC50 (ALK) [nM] | IC50 ([3]; 72h, Cell titer blue) [nM] | IC50 [12] [nM] | phospho-ALK in 293 cells transfected with EML4-ALK E13;A20 (EML4-ALK E13;A20) | IC50 [13] [nM] | IC50 [7] [nM] | IC50 ([5]; 72h, Cell titer blue) [nM] | IC50 (MET) [nM] | other results
C[C@@H](Oc1cc(-c2cnn(C3CCNCC3)c2)cnc1N)c1c(Cl)ccc(F)c1Cl [PF-1066, crizotinib, reference compound] | 1360 | – | – | – | – | – | – | – | – | – | – | – | – | – | – | – | – | concentration at 2 h ([1]; athymic nude (nu/nu), mouse, plasma, po, 50 mg/kg): 10.2 µM; IC50 ([2]; Homo sapiens, HepG2, 72 h): 14500 nM; IC50 ([3]; Homo sapiens, NCI-H2030, 72 h): 2470 nM; IC50 ([4]; Homo sapiens, HCC78, 72 h, read-out: IC50 HCC78, 72h, Cell titer blue): 1400 nM; IC50 ([5]; Homo sapiens, 72 h): 1670 nM
CO[C@H]1C[C@@H]2CC[C@@H](C)[C@@](O)(O2)C(=O)C(=O)N2CCCC[C@H]2C(=O)O[C@H]([C@H](C)C[C@@H]2CC[C@@H](O)[C@H](OC)C2)CC(=O)[C@H](C)/C=C(\C)[C@@H](O)[C@@H](OC)C(=O)[C@H](C)C[C@H](C)/C=C/C=C/C=C/1C [Rapamycin, rapamycin, reference compound] | – | – | – | – | – | – | – | – | – | – | – | – | – | – | – | – | – | proliferation of H3122 cells, rapamycin alone ([6]; 72 hours): small but reproducible decrease; proliferation of H2228 cells, rapamycin alone ([7]; 72 hours): small but reproducible decrease
COc1cc(N2CCC(N3CCN(C)CC3)CC2)ccc1Nc1ncc(Cl)c(Nc2ccccc2S(=O)(=O)C(C)C)n1 [TAE-684, reference compound] | – | – | – | – | – | – | – | – | – | – | – | – | – | – | – | – | – | IC50 ([6]; Homo sapiens, NCI-H3122, 72 h, read-out: IC50 H3122 cell growth): 5 nM; sensitivity of HCC78 cells [8]: moderate sensitivity
C[C@@H](Oc1cc(C(=O)Nc2ccc(C(=O)N3CCN(C)CC3)cc2)nnc1N)c1c(Cl)ccc(F)c1Cl [X-376] | > 3000 | 142 | substantial bioavailability | moderate half-lives | 50 | 15100 | 3 | 77 | approximately 10 fold | 0.61 | 1430 | 32 | greater reductions in phospho-ALK at lower concentrations of drug | 150 | 57 | 3060 | 0.69 | inhibition of ALK kinase activity of four ALK fusions [9]: dose-dependent inhibition of ALK kinase activity; differences in sensitivity among the four ALK variants ([9]; quantitative examination of immunoblots (data not shown)): no major differences in sensitivity; plasma level at 2 hours after dosing ([1]; 50mg/kg): 6.27 µM; increase of the liver enzymes AST and ALT at NST level ([11]; 50 mg/kg): < 50%; IC50 (ROS1): 19 nM; apoptosis (Annexin V and propidium iodide) (H3122 cells): increased apoptosis; growth of H3122 xenograft tumors vs vehicle (H3122 xenografts; 50mg/kg bid): significantly delayed the growth of tumors; mouse weight (H3122 xenografts; 50mg/kg bid): unaffected; brain penetration (brain tissue concentration as % of plasma level) ([14]; 50mg/kg): less
C[C@@H]1CN(C(=O)c2ccc(NC(=O)c3cc(O[C@H](C)c4c(Cl)ccc(F)c4Cl)c(N)nn3)cc2)C[C@H](C)N1 [X-396] | > 3000 | 68 | substantial bioavailability | moderate half-lives | 80 | 9640 | 10 | 15 | approximately 10 fold | < 0.4 | 757 | 9 | greater reductions in phospho-ALK at lower concentrations of drug | 156 | 45 | 2990 | 0.74 | plasma level at 2 hours after dosing ([1]; 25mg/kg): 2.28 µM; IC50 ([15]; read-out: IC50 Ba/F3 + EML4-ALK E13;A20 L1196M, Cell titer blue): 106 nM; IC50 ([15]; read-out: IC50 Ba/F3 EML4-ALK E13;A20 L1196M): ≤ 100 nM; increase of the liver enzymes AST and ALT at NST level ([11]; 80mg/kg): < 50%; cell growth of H3122, combination with rapamycin [6, 21]: synergistic decrease of cell growth; IC50 ([16]; read-out: IC50 Ba/F3 + EML4-ALK E13;A20 C1156Y, Cell titer blue): 48 nM; IC50 ([16]; read-out: IC50 Ba/F3 EML4-ALK E13;A20 C1156Y): ≤ 100 nM; endogenous ALK phosphorylation in H3122 [17]: inhibited ALK phosphorylation at lower concentrations of drug; ALK autophosphorylation, C1156Y (EML4-ALK E13;A20 C1156Y): significantly diminished; growth of H3122 xenograft tumors vs vehicle (H3122 xenografts; 25mg/kg bid): significantly delayed the growth of tumors; mouse weight (H3122 xenografts; 25mg/kg bid): unaffected; cell growth of H2228, combination with rapamycin [7, 21]: synergistic decrease of cell growth; brain penetration (brain tissue concentration as % of plasma level) ([14]; 25mg/kg): 13%; projected concentration in human brain ([14]; projection from mouse study at a human plasma level of ∼500nM): about 65 nM; fold more potent than PF-1066 in Ba/F3 EML4-ALK E13;A20 wild-type ([18]; growth inhibition): ~10 fold; IC50 ([18]; read-out: IC50 Ba/F3 + EML4-ALK E13;A20 WT, 72h, Cell titer blue): 22 nM; ALK autophosphorylation, L1196M (EML4-ALK E13;A20 L1196M): significantly diminished
